Two molecules from US20160257651A1, “NOVEL COMPOUND WITH ANTIBACTERIAL ACTIVITY” (priority 2013, published 2016) can be followed below.

Each structure is given as a SMILES string. Converted amounts (≈) assume the structure as drawn. Some results are limits rather than exact numbers.

One test concerns S. aureus FDA209P (ATCC 6538P). The test can be described thus: microbe, parasite or virus in culture. The test is classed as cell-based, Staphylococcus aureus. The note with it: Staphylococcus aureus, ATCC 6538P / FDA209P / MSSA, quinolone-susceptible MSSA, ParC 80S, GyrA 84S, read-out: MIC. As for the experimental part:
(§1) Then, the cell suspension was diluted 500 times with CAMHB mentioned above.
`CCn1cc(C(=O)O)c(=O)c2cc(F)c(N3CCNCC3)cc21` [NOR, norfloxacin]: the MIC amounted to 0.25 µg/mL (≈ 0.783 µM).

In a further test the test system is S. aureus Mu50. The test can be described thus: microbe, parasite or virus in culture. To be noted: MIC for S. aureus Mu50 / MIC for S. aureus FDA209P. The test is classed as cell-based, Staphylococcus aureus. As for the experimental part: as §1
With `CCn1cc(C(=O)O)c(=O)c2cc(F)c(N3CCNCC3)cc21` [NOR, norfloxacin], the “MIC ratio (Mu50 MIC/FDA209P MIC)” value stood at 512.

The test system of another test is S. aureus Mu50 NR1-1. The test can be described thus: microbe, parasite or virus in culture. The format is cell-based. To be noted: Staphylococcus aureus, MU50NR11. As for the experimental part:
as §1
With `CCn1cc(C(=O)O)c(=O)c2cc(F)c(N3CCNCC3)cc21` [NOR, norfloxacin], the MIC is 16 µg/mL (≈ 50.1 µM).

The test system of another test is S. aureus MR5867 one-step mutant. The test can be described thus: MIC against stepwise QRDR mutants. The format is cell-based. To be noted: Staphylococcus aureus. As for the experimental part:
(§2) The strains used for this test example are available from the inventors of the present invention.
as §1
`CCn1cc(C(=O)O)c(=O)c2cc(F)c(N3CCNCC3)cc21` [NOR, norfloxacin] displayed an MIC of 16 µg/mL (≈ 50.1 µM).

The subject of the next test is S. aureus MS5952 one-step mutant. The test can be described thus: MIC against stepwise QRDR mutants. The test is classed as cell-based. To be noted: Staphylococcus aureus. As for the experimental part: as §2, §1
`CCn1cc(C(=O)O)c(=O)c2cc(F)c(N3CCNCC3)cc21` [NOR, norfloxacin]: the MIC was 16 µg/mL (≈ 50.1 µM).

The subject of a further test is Staphylococcus aureus VRS5 (VRSA). The test can be described thus: MIC, S. aureus categories (Test Example 3). The test is classed as cell-based.
Conditions: not given
As for the experimental part: The antibacterial activities of the compound J-131CP against Staphylococcus aureus strains belonging to the five categories of Staphylococcus aureus, i.e., MSSA, MRSA, community-acquired-infection type MRSA (CA-MRSA), VISA, and VRSA, were investigated.
(§3) The compound J-131CP and quinolones were prepared in the same manner as that of Test Example 1-1.
Cell suspensions were prepared in the same manner as that of Test Example 1-1 described in the section of measurement of MIC in Test Example 1-1, except that the strains mentioned in Table 6 were used as Staphylococcus aureus, and MICs of the compound J-131CP and quinolones as the control were determined for the strains in the same manner as that of Test Example 1-1. In Table 6, the amino acid substitution mutations in QRDR of the strains are underlined.
`O=C(O)c1cn(C2CC2)c2cc(N3CCNCC3)c(F)cc2c1=O` [CIP, ciprofloxacin] yielded an MIC of more than 128 µg/mL.
`CCn1cc(C(=O)O)c(=O)c2cc(F)c(N3CCNCC3)cc21` [NOR, norfloxacin]: the MIC is more than 128 µg/mL.

For the next test, the system named is E. faecalis 36-15747. The test can be described thus: MIC against Enterococcus bacteria. To be noted: 3615747, ParC 80Ile. The format is cell-based. As for the experimental part:
(§4) Antibacterial activities of the compound J-131CP against Enterococcus bacteria (Enterococcus faecium and Enterococcus faecalis) were examined by the following methods.
as §3
(§5) Cell suspensions were prepared in the same manner as that of Test Example 1-1 described in the section of measurement of MIC in Test Example 1-1, except that the Enterococcus bacterium strains mentioned in Table 8 were used instead of Staphylococcus aureus, and MICs of the compound J-131CP and quinolones as control were determined for the strains in the same manner as that of Test Example 1-1 described in the section of measurement of MIC in Test Example 1-1. In Table 8, the amino acid substitution mutations in QRDR of the strains are underlined.
On to `O=C(O)c1cn(C2CC2)c2cc(N3CCNCC3)c(F)cc2c1=O` [CIP, ciprofloxacin], for which the MIC was 2 µg/mL (≈ 6.04 µM).
In turn, `CCn1cc(C(=O)O)c(=O)c2cc(F)c(N3CCNCC3)cc21` [NOR, norfloxacin] came in with an MIC of 16 µg/mL (≈ 50.1 µM).

In another test the test system is E. faecalis NCTC12201. The test can be described thus: MIC against Enterococcus bacteria. The format is cell-based. To be noted: Enterococcus faecalis, NCTC 12201 / VRE, quinolone-susceptible, read-out: MIC. As for the experimental part:
as §4, §3, §5
As to `CCn1cc(C(=O)O)c(=O)c2cc(F)c(N3CCNCC3)cc21` [NOR, norfloxacin], the MIC was 2 µg/mL (≈ 6.26 µM).

For another test, the system named is E. faecalis NCTC12203. The test can be described thus: MIC against Enterococcus bacteria. The format is cell-based. The note with it: NCTC 12203 / VRE, E. faecalis NCTC12203, VRE, read-out: MIC. As for the experimental part: as §4, §3, §5
As to `O=C(O)c1cn(C2CC2)c2cc(N3CCNCC3)c(F)cc2c1=O` [CIP, ciprofloxacin], the MIC was 4 µg/mL (≈ 12.1 µM).
The same measure, in the same setting: for `CCn1cc(C(=O)O)c(=O)c2cc(F)c(N3CCNCC3)cc21` [NOR, norfloxacin] the value was 4 µg/mL (≈ 12.5 µM).

The subject of another test is E. faecium NCTC12204. The test can be described thus: MIC against Enterococcus bacteria. The format is cell-based. To be noted: NCTC 12204 / VRE, E. faecium NCTC12204, VRE, read-out: MIC. As for the experimental part: as §4, §3, §5
On to `O=C(O)c1cn(C2CC2)c2cc(N3CCNCC3)c(F)cc2c1=O` [CIP, ciprofloxacin], for which the MIC worked out at 4 µg/mL (≈ 12.1 µM).
`CCn1cc(C(=O)O)c(=O)c2cc(F)c(N3CCNCC3)cc21` [NOR, norfloxacin]: the MIC is 4 µg/mL (≈ 12.5 µM).

Another test relates to E. faecium RPR10. The test can be described thus: MIC against Enterococcus bacteria. The note with it: E. faecium RPR10, read-out: MIC. The test is classed as cell-based. As for the experimental part:
as §4, §3, §5
For `CCn1cc(C(=O)O)c(=O)c2cc(F)c(N3CCNCC3)cc21` [NOR, norfloxacin], the MIC is 2 µg/mL (≈ 6.26 µM).

The subject of a further test is E. faecalis 36-15722. The test can be described thus: MIC against Enterococcus bacteria. The note with it: Enterococcus faecalis, 3615722. The format is cell-based, Enterococcus faecalis. As for the experimental part: as §4, §3, §5
As to `O=C(O)c1cn(C2CC2)c2cc(N3CCNCC3)c(F)cc2c1=O` [CIP, ciprofloxacin], the MIC came out at 64 µg/mL (≈ 193 µM).

Still in this test, the particulars now being: Enterococcus faecalis, 3615722; E. faecalis 36-15722, quinolone-resistant; ParC 80Ile, GyrA 84Ile; read-out: MIC.
Turning to `CCn1cc(C(=O)O)c(=O)c2cc(F)c(N3CCNCC3)cc21` [NOR, norfloxacin], the MIC stood at 128 µg/mL (≈ 401 µM).

The test system of a further test is S. pneumoniae BCLSP16. The test can be described thus: MIC against pneumococcus, CAMHB with 5 mass % LHB. The test is classed as cell-based. The note with it: Streptococcus pneumoniae, BCLSP16. The text has this: (§6) Antibacterial activity of the compound J-131CP against pneumococcus (Streptococcus pneumoniae) was examined by the following method. The S. pneumoniae strains used for this test belong to any one of the categories of penicillin-susceptible pneumococcus (penicillin-susceptible Streptococcus pneumoniae, PSSP), penicillin-intermediate pneumococcus (penicillin-intermediate Streptococcus pneumoniae, PISP), and penicillin-resistant pneumococcus (penicillin-resistant Streptococcus pneumoniae, PRSP).
(§7) The compound J-131CP and quinolones were prepared in the same manner as that of Test Example 1-1, except that CAMHB containing 5 mass % of lysed horse blood (LHB) was used for the dilution instead of CAMHB. The lysed horse blood was prepared by adding sterilized water to horse sterile defibered blood (produced by Nippon Bio-Supp. Center) at a ratio of 1:1, subjecting the mixture to freezing and thawing 5 times, then centrifuging the mixture twice at 10,000 rpm for 20 minutes, and filtering the supernatant through a filter.
(§8) The S. pneumoniae strains mentioned in Table 11 were each cultured overnight at 37° C. on a blood agar medium as stationary culture. The blood agar medium was prepared by adding 5 mass % ovine sterile defibered blood (produced by Nippon Bio-Supp. Center) to a heart infusion agar medium (produced by EIKEN CHEMICAL). Each S. pneumoniae strain cultured overnight at 37° C. as stationary culture was further subcultured overnight at 37° C. on fresh blood agar medium as stationary culture. After completion of the culture, cells of each pneumococcus strain were collected with a swab, and suspended in physiological saline, and the suspension was adjusted with physiological saline to show absorbance of 0.08 to 0.13 at 625 nm as measured with an absorbance meter (produced by Amersham), and further diluted 200 times with CAMHB containing 5 mass % LHB.
(§9) CAMHB containing the compound J-131CP at each concentration or each quinolone at each concentration, and 5 mass % LHB was added to each well of a 96-well plate in a volume of 50 μL/well, each cell suspension diluted 200 times was added to the well in a volume of 50 μL/well, and stationary culture was carried out overnight at 37° C.
(§10) After completion of the culture, whether the bacterium proliferated or not was determined on the basis of visually observed turbidity of the culture in the well, and MIC values (mg/L) of the compound J-131CP and the quinolones for the strains were determined. In Table 11, the amino acid substitution mutations in QRDR of the strains are underlined.
For `CCn1cc(C(=O)O)c(=O)c2cc(F)c(N3CCNCC3)cc21` [NOR, norfloxacin], the MIC is more than 128 µg/mL.

Staying with this test, now noted: Streptococcus pneumoniae; S. pneumoniae BCLSP16, PSSP; ParC 79Tyr, GyrA 81Phe; read-out: MIC.
Consider `O=C(O)c1cn(C2CC2)c2cc(N3CCNCC3)c(F)cc2c1=O` [CIP, ciprofloxacin], for which the MIC was more than 32 µg/mL.

The next test relates to S. pneumoniae JHSP11. The test can be described thus: MIC against pneumococcus, CAMHB with 5 mass % LHB. The test is classed as cell-based. To be noted: Streptococcus pneumoniae.
From the text: as §6, §7, §8, §9, §10
In turn, `O=C(O)c1cn(C2CC2)c2cc(N3CCNCC3)c(F)cc2c1=O` [CIP, ciprofloxacin] registered an MIC of more than 32 µg/mL.
The molecule `CCn1cc(C(=O)O)c(=O)c2cc(F)c(N3CCNCC3)cc21` [NOR, norfloxacin] displayed an MIC of 128 µg/mL (≈ 401 µM).

The next test has as its system S. pneumoniae KBSP04. The test can be described thus: MIC against pneumococcus, CAMHB with 5 mass % LHB. The format is cell-based. The note with it: Streptococcus pneumoniae; S. pneumoniae KBSP04, PISP; read-out: MIC.
From the text: as §6, §7, §8, §9, §10
On to `O=C(O)c1cn(C2CC2)c2cc(N3CCNCC3)c(F)cc2c1=O` [CIP, ciprofloxacin], for which the MIC is 0.5 µg/mL (≈ 1.51 µM).
As for `CCn1cc(C(=O)O)c(=O)c2cc(F)c(N3CCNCC3)cc21` [NOR, norfloxacin], the MIC worked out at 4 µg/mL (≈ 12.5 µM).
